Assay [1] can be described thus: test study of pure Nimbin in humans: analgesic effects. It is filed as in vivo. Particulars: pure Nimbin consumed orally (10 mg/day). The protocol: (§1) For example, pure Nimbin has been consumed orally (10 mg/day) in a test study to observe therapeutic/pharmacological effects of the compound various systems/maladies in humans.
Assay [2] has as its system several classes of insects (Lepidoptera, Coleoptera, Homoptera). As to the kind of experiment: insecticidal action of Nimbin. Format: in vivo. The following applies: diamondback moth, imported cabbage worm, cabbage looper, tobacco budworm, Colorado potato beetle, green apple aphid, green peach aphid, potato leafhopper.
For a further assay, the system named is skin. Description: topical administration of Nimbin: tone of the skin. It is filed as in vivo, humans.
A further assay has as its system benign tumors. As to the kind of experiment: systemic administration of Nimbin: benign tumors. Format: in vivo, humans. The protocol:
as §1

In the case of `COC(=O)C[C@H]1[C@]2(C)C3=C(C)[C@H](c4ccoc4)C[C@H]3O[C@@H]2[C@H](OC(C)=O)[C@@H]2[C@]1(C)C(=O)C=C[C@@]2(C)C(=O)OC` [Nimbin], in assay [1], the analgesic effects entry is “analgesic effects”. The insecticidal action result in assay [2] was “broad spectrum insecticidal action”. Moreover, the “effect on tone of the skin” value with skin is “modulates the tone of the skin”. The “action on benign tumors” value in the assay on benign tumors was “regressive actions on benign tumors”.

For the origin of these results see patent US6545167B1, “Simple and effective manufacturing process for large scale recovery of Nimbin, a Neem seed constituent” (Fortune Bio-Tech Limited, priority 2002, dated 2003).
